Test results reported in article PMC7997574, “Lead Optimization of Benzoxazolone Carboxamides as Orally Bioavailable and CNS Penetrant Acid Ceramidase Inhibitors” (Journal of Medicinal Chemistry, 2020).

Tests used:
[1] = molecular target: T1, monoacylglycerol lipase (MAGL) (Homo sapiens, UniProt Q99685); test: In vitro hMAGL colorimetric assay; assay type: biochemical; conditions: 1 and 10 μM
T1 construct: purchased Cayman Scientific item; 705192
T1 sequence (Q99685 1-303): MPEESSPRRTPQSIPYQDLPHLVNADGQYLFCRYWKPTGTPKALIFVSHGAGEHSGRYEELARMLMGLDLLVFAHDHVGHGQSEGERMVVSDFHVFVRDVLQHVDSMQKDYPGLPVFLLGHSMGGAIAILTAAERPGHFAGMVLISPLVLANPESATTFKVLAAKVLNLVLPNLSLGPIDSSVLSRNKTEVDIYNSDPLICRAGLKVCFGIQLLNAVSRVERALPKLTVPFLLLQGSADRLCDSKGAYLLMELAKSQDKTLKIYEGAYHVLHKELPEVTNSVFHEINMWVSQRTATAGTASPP
Protocol: The colorimetric assay to measure hMAGL activity was performed using an assay kit provided by Cayman Scientific (item. 705192), according to the manufacturer’s instructions. Briefly, in vitro activity was measured in 96-well plates, and DMSO was used as solvent. 10 μL of DMSO (100% initial activity wells: 100% IA) or compounds at two concentrations (1 and 10 μM) were preincubated for 5 min at rt with 150 μL of diluted assay buffer (10 mM Tris HCl, pH 7.2, containing 1 mM EDTA) containing hMAGL. In blank wells, 160 μL of the diluted assay buffer and 10 μL of DMSO were added. The reactions were initiated by adding 10 μL of MAGL substrate to all the wells, and plates were incubated for 10 min at rt. Absorbance values were measured at 405 nm, and percent inhibition was calculated by the following method: 100 – (Inhibitor/100% IA) × 100. The reported percentages of inhibition are the mean of at least three independent experiments performed in three technical replicates.

AC = molecular target: T2, AC (Homo sapiens, UniProt Q13510); test: hAC LC/MS-based activity assay in SH-SY5Y cells; assay type: cell-based; parameters: host or cells: SH-SY5Y
T2 sequence (Q13510 22-395): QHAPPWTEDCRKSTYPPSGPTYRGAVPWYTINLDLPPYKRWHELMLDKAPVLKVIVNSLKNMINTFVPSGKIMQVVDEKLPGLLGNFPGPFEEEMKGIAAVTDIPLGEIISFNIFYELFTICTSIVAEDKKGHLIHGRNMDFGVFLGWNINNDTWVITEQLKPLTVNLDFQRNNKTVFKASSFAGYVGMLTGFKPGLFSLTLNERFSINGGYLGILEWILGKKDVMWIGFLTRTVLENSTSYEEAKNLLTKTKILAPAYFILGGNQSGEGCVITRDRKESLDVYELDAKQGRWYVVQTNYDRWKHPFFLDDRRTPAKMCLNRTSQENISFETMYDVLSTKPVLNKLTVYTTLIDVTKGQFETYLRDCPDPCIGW
Protocol: SH-SY5Y cells were purchased from Sigma Aldrich (Italy) and cultured in Dulbecco’s modified Eagle’s medium (DMEM) containing 10% fetal bovine serum at 37 °C and 5% CO2. Drugs were dissolved in DMSO (10 mM) and diluted in the cell culture medium with reduced serum (1%) for cell treatments.
hAC activity measurement was performed as previously described.[36],[37] Total lysates from cells were diluted in assay buffer (100 mM sodium phosphate, 0.1% Nonidet P-40, 150 mM NaCl, 3 mM DTT, 100 mM sodium citrate, pH 4.5). Reactions were started by the addition of 50 μM N-lauroyl ceramide (Nu-Chek Prep, Elysian, MN) and carried out for 1 h at 37 °C. Reactions were stopped by addition of a mixture of CHCl3/MeOH (2:1) containing 1 nmol of 11-lauroleic acid (Nu-Chek Prep). The organic phases were collected, dried under nitrogen, and analyzed by UPLC/MS (ACQUITY, Waters) in the negative-ion mode monitoring the reaction product (lauric acid, m/z: 199) using 11-lauroleic acid as internal standard. […] The [M–H]^− ion was monitored in the selected-ion monitoring mode (m/z values: lauric acid 199, 11-lauroleic acid 197.35). […]

SMILES: CC(C)CNC(=O)n1c(=O)oc2cc(C3CCN(C)CC3)ccc21 [22m, N-Isobutyl-6-(1-methyl-4-piperidyl)-2-oxo-1,3-benzoxazole-3-carboxamide]
- effect on MAGL [1]: no effect
- AC activity in SH-SY5Y cells (AC; 1, 2.5, 5, 10 μM, 30 min, 1 h, 3 h, 6 h): concentration- (Figure 5A) and time-dependent reduction of AC activity
- persistence of effect on AC activity inhibition and SphL (AC; SH-SY5Y cells, 10 μM): persisted for up to 6 h
